Reference: patent publication US6770596B1, “Fused tricyclic compounds, process for their preparation, and herbicidal compositions containing them” (Ishihara Sangyo Kaisha Ltd., priority 2002, dated 2004)

Tests used:
Assay type in all cases: in vivo
[1] = system: redroot pigweed (Amaranthus retroflexus, AMR); assay: Pre-emerge test, redroot pigweed; conditions: 250 g ai/ha, 14 days after application, rating scale 0-100 (0 no damage, 100 complete death)
In short: (§1)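 Sandy loam soil mix, 10 cm pots, sowing 1 d before treatment; spray volume 187 l/ha, rates 8–1000 g ai/ha in acetone; 0–100 visual rating at 14 d.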

[2] = system: velvetleaf (Abutilon theophrasti, ABT); assay: Pre-emerge test, velvetleaf; conditions: 250 g ai/ha, 14 days after application, rating scale 0-100 (0 no damage, 100 complete death)
In short: as §1

[3] = system: sicklepod (Cassia obtusifolia, CAO); assay: Pre-emerge test, sicklepod; conditions: 250 g ai/ha, 14 days after application, rating scale 0-100 (0 no damage, 100 complete death)
In short: as §1

[4] = system: ivyleaf morningglory (Ipomoea hederacea, IPH); assay: Pre-emerge test, ivyleaf morningglory; conditions: 250 g ai/ha, 14 days after application, rating scale 0-100 (0 no damage, 100 complete death)
In short: as §1

[5] = system: lambsquarters (Chenopodium album, CHA); assay: Pre-emerge test, lambsquarters; conditions: 250 g ai/ha, 14 days after application, rating scale 0-100 (0 no damage, 100 complete death)
In short: as §1

[6] = system: common ragweed (Ambrosia artemisiifolia L., AML); assay: Pre-emerge test, common ragweed; conditions: 250 g ai/ha, 14 days after application, rating scale 0-100 (0 no damage, 100 complete death)
In short: as §1

[7] = system: cocklebur (Xanthium strumariunt, XAS); assay: Pre-emerge test, cocklebur; conditions: 250 g ai/ha, 14 days after application, rating scale 0-100 (0 no damage, 100 complete death)
In short: as §1

[8] = system: green foxtail (Setaria viridis, SEV); assay: Pre-emerge test, green foxtail; conditions: 250 g ai/ha, 14 days after application, rating scale 0-100 (0 no damage, 100 complete death)
In short: as §1

[9] = system: barnyardgrass (Echinachloa crus-galli, ECC); assay: Pre-emerge test, barnyardgrass; conditions: 250 g ai/ha, 14 days after application, rating scale 0-100 (0 no damage, 100 complete death)
In short: as §1

[10] = system: johnsongrass (Sorghum halepense, SOH); assay: Pre-emerge test, johnsongrass; conditions: 250 g ai/ha, 14 days after application, rating scale 0-100 (0 no damage, 100 complete death)
In short: as §1

[11] = system: large crabgrass (Digitaria sanguinalis, DIS); assay: Pre-emerge test, large crabgrass; conditions: 250 g ai/ha, 14 days after application, rating scale 0-100 (0 no damage, 100 complete death)
In short: as §1

[12] = system: field corn (Zea mays L., var. Dekalb 535, CORN); assay: Pre-emerge test, crop damage field corn
In short: (§2)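 Efficacy values are 0–100 phytotoxicity scores (0 no damage, 100 complete death) recorded 14 days post-application. Spray was delivered pre-emergence at 187 l/ha with rates of 8–1000 g ai/ha, using acetone as solvent.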

[13] = system: soybean (Glycine max L., var. Pella 86, SOY); assay: Pre-emerge test, crop damage soybean
In short: as §2

[14] = system: upland rice (Oryza sp., var.Tebonnet, RICE); assay: Pre-emerge test, crop damage upland rice
In short: as §2

[15] = system: wheat (Triticum aestivum); assay: Pre-emerge test, crop damage wheat
In short: as §2

[16] = system: redroot pigweed (Amaranthus retroflexus, AMR); assay: Post-emerge test, redroot pigweed; conditions: 250 g ai/ha, 14 days after application, rating scale 0-100 (0 no damage, 100 complete death)
In short: (§3)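 Plants grow in sandy loam pots for 8-21 days, then receive an acetone spray (187 l/ha, 0.25% v/v non-ionic surfactant) at 8-1000 g ai/ha. Plant damage is rated 0-100 at 14 days.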

[17] = system: velvetleaf (Abutilon theophrasti, ABT); assay: Post-emerge test, velvetleaf; conditions: 250 g ai/ha, 14 days after application, rating scale 0-100 (0 no damage, 100 complete death)
In short: as §3

[18] = system: sicklepod (Cassia obtusifolia, CAO); assay: Post-emerge test, sicklepod; conditions: 250 g ai/ha, 14 days after application, rating scale 0-100 (0 no damage, 100 complete death)
In short: as §3

[19] = system: ivyleaf morningglory (Ipomoea hederacea, IPH); assay: Post-emerge test, ivyleaf morningglory; conditions: 250 g ai/ha, 14 days after application, rating scale 0-100 (0 no damage, 100 complete death)
In short: as §3

[20] = system: lambsquarters (Chenopodium album, CHA); assay: Post-emerge test, lambsquarters; conditions: 250 g ai/ha, 14 days after application, rating scale 0-100 (0 no damage, 100 complete death)
In short: as §3

[21] = system: common ragweed (Ambrosia artemisiifolia L., AML); assay: Post-emerge test, common ragweed; conditions: 250 g ai/ha, 14 days after application, rating scale 0-100 (0 no damage, 100 complete death)
In short: as §3

[22] = system: cocklebur (Xanthium strumariunt, XAS); assay: Post-emerge test, cocklebur; conditions: 250 g ai/ha, 14 days after application, rating scale 0-100 (0 no damage, 100 complete death)
In short: as §3

[23] = system: green foxtail (Setaria viridis, SEV); assay: Post-emerge test, green foxtail; conditions: 250 g ai/ha, 14 days after application, rating scale 0-100 (0 no damage, 100 complete death)
In short: as §3

[24] = system: barnyardgrass (Echinachloa crus-galli, ECC); assay: Post-emerge test, barnyardgrass; conditions: 250 g ai/ha, 14 days after application, rating scale 0-100 (0 no damage, 100 complete death)
In short: as §3

[25] = system: johnsongrass (Sorghum halepense, SOH); assay: Post-emerge test, johnsongrass; conditions: 250 g ai/ha, 14 days after application, rating scale 0-100 (0 no damage, 100 complete death)
In short: as §3

[26] = system: large crabgrass (Digitaria sanguinalis, DIS); assay: Post-emerge test, large crabgrass; conditions: 250 g ai/ha, 14 days after application, rating scale 0-100 (0 no damage, 100 complete death)
In short: as §3

[27] = system: field corn (Zea mays L., var. Dekalb 535, CORN); assay: Post-emerge test, crop damage field corn
In short: as §3

[28] = system: soybean (Glycine max L., var. Pella 86, SOY); assay: Post-emerge test, crop damage soybean
In short: as §3

[29] = system: upland rice (Oryza sp., var.Tebonnet, RICE); assay: Post-emerge test, crop damage upland rice
In short: as §3

[30] = system: wheat (Triticum aestivum); assay: Post-emerge test, crop damage wheat
In short: as §3

[31] = var. Dekalb 535, Zea mays (field corn), in vivo, 14 days
[32] = var. Pella 86, Glycine max (soybean), in vivo, 14 days
[33] = var. Tebonnet, Oryza sp. (upland rice), in vivo, 14 days
[34] = Triticum aestivum (wheat), in vivo, 14 days
[35] = pre-emerge, 250 g ai/ha, 14 days after application, rating scale 0-100 (0 no damage, 100 complete death)
[36] = post-emerge, 250 g ai/ha, 14 days after application, rating scale 0-100 (0 no damage, 100 complete death)

C[C@H]1Oc2cc(F)c(-c3nn(C)c(C(F)(F)F)c3Cl)c3c2N(CC(=O)N3)C1=O [1-48, 8-[4-Chloro-1-methyl-5-(trifluoromethyl)-1H-pyrazol-3-yl]-9-fluoro-2-R-methyl-5H-pyrazino[1,2,3-de]-1,4-benzoxazine-3,6(2H, 7H)-dione]
Pre-emerge Herbicidal Activity AMR (phytotoxicity rating) [1]: 100 | Pre-emerge Herbicidal Activity ABT (phytotoxicity rating) [2]: 100 | Pre-emerge Herbicidal Activity CAO (phytotoxicity rating) [3]: 100 | Pre-emerge Herbicidal Activity IPH (phytotoxicity rating) [4]: 100 | Pre-emerge Herbicidal Activity CHA (phytotoxicity rating) [5]: 100 | Pre-emerge Herbicidal Activity AML (phytotoxicity rating) [6]: 99 | Pre-emerge Herbicidal Activity XAS (phytotoxicity rating) [7]: 60 | Pre-emerge Herbicidal Activity SEV (phytotoxicity rating) [8]: 100 | Pre-emerge Herbicidal Activity ECC (phytotoxicity rating) [9]: 100 | Pre-emerge Herbicidal Activity SOH (phytotoxicity rating) [10]: 100 | Pre-emerge Herbicidal Activity DIS (phytotoxicity rating) [11]: 100 | Pre-emerge crop damage CORN (phytotoxicity rating) [12, 31]: 70 | Pre-emerge crop damage SOY (phytotoxicity rating) [13, 32]: 40 | Pre-emerge crop damage RICE (phytotoxicity rating) [14, 33]: 55 | Pre-emerge crop damage WHEAT (phytotoxicity rating) [15, 34]: 25 | Post-emerge Herbicidal Activity AMR (phytotoxicity rating) [16]: 100 | Post-emerge Herbicidal Activity ABT (phytotoxicity rating) [17]: 100 | Post-emerge Herbicidal Activity CAO (phytotoxicity rating) [18]: 65 | Post-emerge Herbicidal Activity IPH (phytotoxicity rating) [19]: 100 | Post-emerge Herbicidal Activity CHA (phytotoxicity rating) [20]: 100 | Post-emerge Herbicidal Activity AML (phytotoxicity rating) [21]: 80 | Post-emerge Herbicidal Activity XAS (phytotoxicity rating) [22]: 100 | Post-emerge Herbicidal Activity SEV (phytotoxicity rating) [23]: 98 | Post-emerge Herbicidal Activity ECC (phytotoxicity rating) [24]: 95 | Post-emerge Herbicidal Activity SOH (phytotoxicity rating) [25]: 30 | Post-emerge Herbicidal Activity DIS (phytotoxicity rating) [26]: 50 | Post-emerge crop damage CORN (phytotoxicity rating) [27, 31]: 10 | Post-emerge crop damage SOY (phytotoxicity rating) [28, 32]: 65 | Post-emerge crop damage RICE (phytotoxicity rating) [29, 33]: 60 | Post-emerge crop damage WHEAT (phytotoxicity rating) [30, 34]: 0

Cc1nn(-c2c(F)cc3c4c2NC(=O)CN4C(=O)CO3)c(=O)n1C(F)F [1-73]
Pre-emerge Herbicidal Activity AMR (phytotoxicity rating) [1]: 100 | Pre-emerge Herbicidal Activity ABT (phytotoxicity rating) [2]: 100 | Pre-emerge Herbicidal Activity CAO (phytotoxicity rating) [3]: 90 | Pre-emerge Herbicidal Activity IPH (phytotoxicity rating) [4]: 100 | Pre-emerge Herbicidal Activity CHA (phytotoxicity rating) [5]: 100 | Pre-emerge Herbicidal Activity AML (phytotoxicity rating) [6]: 80 | Pre-emerge Herbicidal Activity XAS (phytotoxicity rating) [7]: 65 | Pre-emerge Herbicidal Activity SEV (phytotoxicity rating) [8]: 100 | Pre-emerge Herbicidal Activity ECC (phytotoxicity rating) [9]: 100 | Pre-emerge Herbicidal Activity SOH (phytotoxicity rating) [10]: 100 | Pre-emerge Herbicidal Activity DIS (phytotoxicity rating) [11]: 100 | Pre-emerge crop damage CORN (phytotoxicity rating) [12, 35]: 100 | Pre-emerge crop damage SOY (phytotoxicity rating) [13, 35]: 60 | Pre-emerge crop damage RICE (phytotoxicity rating) [14, 35]: 100 | Pre-emerge crop damage WHEAT (phytotoxicity rating) [15, 35]: 90 | Post-emerge Herbicidal Activity AMR (phytotoxicity rating) [16]: 30 | Post-emerge Herbicidal Activity ABT (phytotoxicity rating) [17]: 65 | Post-emerge Herbicidal Activity CAO (phytotoxicity rating) [18]: 0 | Post-emerge Herbicidal Activity IPH (phytotoxicity rating) [19]: 55 | Post-emerge Herbicidal Activity CHA (phytotoxicity rating) [20]: 90 | Post-emerge Herbicidal Activity AML (phytotoxicity rating) [21]: 50 | Post-emerge Herbicidal Activity XAS (phytotoxicity rating) [22]: 40 | Post-emerge Herbicidal Activity SEV (phytotoxicity rating) [23]: 50 | Post-emerge Herbicidal Activity ECC (phytotoxicity rating) [24]: 0 | Post-emerge Herbicidal Activity SOH (phytotoxicity rating) [25]: 0 | Post-emerge Herbicidal Activity DIS (phytotoxicity rating) [26]: 0 | Post-emerge crop damage CORN (phytotoxicity rating) [27, 36]: 0 | Post-emerge crop damage SOY (phytotoxicity rating) [28, 36]: 60 | Post-emerge crop damage RICE (phytotoxicity rating) [29, 36]: 75 | Post-emerge crop damage WHEAT (phytotoxicity rating) [30, 36]: 0

Cn1c(C(F)(F)F)cc(=O)n(-c2c(F)cc3c4c2NC(=O)CN4C(=O)CO3)c1=O [1-1, 8-[1-methyl-6-(trifluoromethyl)-2,4-(1H, 3H)-pyrimidinedione-3-yl]-9-fluoro-5H-pyrazino[1,2,3-de]-1,4-benzoxazine-3,6-(2H, 7H)-dione]
Pre-emerge Herbicidal Activity AMR (phytotoxicity rating) [1]: 100 | Pre-emerge Herbicidal Activity ABT (phytotoxicity rating) [2]: 100 | Pre-emerge Herbicidal Activity CAO (phytotoxicity rating) [3]: 100 | Pre-emerge Herbicidal Activity IPH (phytotoxicity rating) [4]: 100 | Pre-emerge Herbicidal Activity CHA (phytotoxicity rating) [5]: 100 | Pre-emerge Herbicidal Activity AML (phytotoxicity rating) [6]: 100 | Pre-emerge Herbicidal Activity XAS (phytotoxicity rating) [7]: 99 | Pre-emerge Herbicidal Activity SEV (phytotoxicity rating) [8]: 100 | Pre-emerge Herbicidal Activity ECC (phytotoxicity rating) [9]: 100 | Pre-emerge Herbicidal Activity SOH (phytotoxicity rating) [10]: 100 | Pre-emerge Herbicidal Activity DIS (phytotoxicity rating) [11]: 100 | Pre-emerge crop damage CORN (phytotoxicity rating) [12, 35]: 100 | Pre-emerge crop damage SOY (phytotoxicity rating) [13, 35]: 100 | Pre-emerge crop damage RICE (phytotoxicity rating) [14, 35]: 100 | Pre-emerge crop damage WHEAT (phytotoxicity rating) [15, 35]: 100 | Post-emerge Herbicidal Activity AMR (phytotoxicity rating) [16]: 100 | Post-emerge Herbicidal Activity ABT (phytotoxicity rating) [17]: 100 | Post-emerge Herbicidal Activity CAO (phytotoxicity rating) [18]: 40 | Post-emerge Herbicidal Activity IPH (phytotoxicity rating) [19]: 100 | Post-emerge Herbicidal Activity CHA (phytotoxicity rating) [20]: 98 | Post-emerge Herbicidal Activity AML (phytotoxicity rating) [21]: 65 | Post-emerge Herbicidal Activity XAS (phytotoxicity rating) [22]: 100 | Post-emerge Herbicidal Activity SEV (phytotoxicity rating) [23]: 95 | Post-emerge Herbicidal Activity ECC (phytotoxicity rating) [24]: 60 | Post-emerge Herbicidal Activity SOH (phytotoxicity rating) [25]: 25 | Post-emerge Herbicidal Activity DIS (phytotoxicity rating) [26]: 0 | Post-emerge crop damage CORN (phytotoxicity rating) [27, 36]: 0 | Post-emerge crop damage SOY (phytotoxicity rating) [28, 36]: 95 | Post-emerge crop damage RICE (phytotoxicity rating) [29, 36]: 99 | Post-emerge crop damage WHEAT (phytotoxicity rating) [30, 36]: 25
